Source: patent US11597752B2, “Peptides and combination of peptides and scaffolds thereof for use in immunotherapy against colorectal carcinoma (CRC) and other cancers” (priority 2015, dated 2023)

Tests used:
HLA-A*02:01 = HLA-A*02:01 (Homo sapiens, UniProt P04439, D140Y/D185E/D98H/E176V/E277Q/G131W/G231S/I119V/I121R/I166T/I218V/L300P/L318F/N151K/N90K/P208A/P217A/Q86G/Q94H/R138H/R169H/T345S); assay: MHC binding assay (UV-ligand exchange, beta2m ELISA, peptide exchange yield); conditions: binding to HLA-A*02:01, β2m ELISA
Procedure, shortened: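 Exchange yield is an ELISA read-out: complexes diluted 100-fold, captured on streptavidin plates, detected with HRP anti-β2m and TMB at 450 nm. Standard curve from refolded HLA-A*02:01/MLA-001 (15-500 ng/ml); complexes made by UV-triggered displacement of a photolabile ligand by test peptide.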

[1] = tested on: CD8+ T-cells of healthy HLA-A*02 donors; assay: In vitro immunogenicity: T-cell priming with aAPCs loaded with peptide/MHC and anti-CD28, multimer staining; assay type: cell-based, human; conditions: for Wells positive [%]: HLA-A*02 restricted peptides, among evaluable wells, Table 10B; for donors: percentage of positive donors; for donors / wells: in vitro immunogenicity, Table 10A; for wells: percentage of positive wells
From the text: In order to obtain information regarding the immunogenicity of the TUMAPs of the present invention, the inventors performed investigations using an in vitro T-cell priming assay based on repeated stimulations of CD8+ T-cells with artificial antigen presenting cells (aAPCs) loaded with peptide/MHC complexes and anti-CD28 antibody.
In order to perform in vitro stimulations by artificial antigen presenting cells loaded with peptide-MHC complex (pMHC) and anti-CD28 antibody, the inventors first isolated CD8+ T-cells from fresh HLA-A*02 leukapheresis products via positive selection using CD8 microbeads (Miltenyi Biotec, Bergisch-Gladbach, Germany) of healthy donors obtained from the University clinics Mannheim, Germany, after informed consent.
PBMCs and isolated CD8+ lymphocytes were incubated in T-cell medium (TCM) until use consisting of RPMI-Glutamax (Invitrogen, Karlsruhe, Germany) supplemented with 10% heat inactivated human AB serum (PAN-Biotech, Aidenbach, Germany), 100 U/ml Penicillin/100 μg/ml Streptomycin (Cambrex, Cologne, Germany), 1 mM sodium pyruvate (CC Pro, Oberdorla, Germany), 20 μg/ml Gentamycin (Cambrex). 2.5 ng/ml IL-7 (PromoCell, Heidelberg, Germany) and 10 U/ml IL-2 (Novartis Pharma, Nürnberg, Germany) were also added to the TCM at this step.
Generation of pMHC/anti-CD28 coated beads, T-cell stimulations and readout was performed in a highly defined in vitro system using four different pMHC molecules per stimulation condition and 8 different pMHC molecules per readout condition.
The purified co-stimulatory mouse IgG2a anti human CD28 Ab 9.3 (Jung et al., 1987) was chemically biotinylated using Sulfo-N-hydroxysuccinimidobiotin as recommended by the manufacturer (Perbio, Bonn, Germany). Beads used were 5.6 μm diameter streptavidin coated polystyrene particles (Bangs Laboratories, Illinois, USA).
800.000 beads/200 μl were coated in 96-well plates in the presence of 4×12.5 ng different biotin-pMHC, washed and 600 ng biotin anti-CD28 were added subsequently in a volume of 200 μl. Stimulations were initiated in 96-well plates by co-incubating 1×10^6 CD8+ T-cells with 2×10^6 washed coated beads in 200 μl TCM supplemented with 5 ng/ml IL-12 (PromoCell) for 3 days at 37° C. Half of the medium was then exchanged by fresh TCM supplemented with 80 U/ml IL-2 and incubating was continued for 4 days at 37° C. This stimulation cycle was performed for a total of three times. For the pMHC multimer readout using 8 different pMHC molecules per condition, a two-dimensional combinatorial coding approach was used as previously described (Andersen et al., 2012) with minor modifications encompassing coupling to 5 different fluorochromes. Finally, multimeric analyses were performed by staining the cells with Live/dead near IR dye (Invitrogen, Karlsruhe, Germany), CD8-FITC antibody clone SK1 (BD, Heidelberg, Germany) and fluorescent pMHC multimers. For analysis, a BD LSRII SORP cytometer equipped with appropriate lasers and filters was used. Peptide specific cells were calculated as percentage of total CD8+ cells. Evaluation of multimeric analysis was done using the FlowJo software (Tree Star, Oregon, USA). In vitro priming of specific multimer+CD8+ lymphocytes was detected by comparing to negative control stimulations.

| Peptide exchange (MHC class I binding score, peptide exchange yield) (HLA-A*02:01) | Substance | Wells positive [%] [1] | donors [1] | wells [1] |
| --- | --- | --- | --- | --- |
| “+++” (≥50 = +++) | 1 (ALIKQLFEA; listed as Homo sapiens) [compound 1] | “+” (<20% = +) |  |  |
| “++” (≥20% = ++) | 2 (ALLPRYFFL; listed as Homo sapiens) [compound 2] | “++++” (>=70% = ++++) |  |  |
| “++” (≥20% = ++) | 7 (YLTRHLAVL; listed as Homo sapiens) [compound 7] | “+” (<20% = +) |  |  |
| “++” (≥20% = ++) | 9 (ILDDHLSRV; listed as Homo sapiens) [compound 9] | “+” (<20% = +) |  |  |
| “+++” (≥50 = +++) | 10 (RMYNKIFAI; listed as Homo sapiens) [compound 10] | “++++” (>=70% = ++++) |  |  |
| “+++” (≥50 = +++) | 11 (YLFEKTFNM; listed as Homo sapiens) [compound 11] | “+” (<20% = +) |  |  |
| “+++” (≥50 = +++) | 12 (ALVQGILERV; listed as Homo sapiens) [compound 12] | “++++” (>=70% = ++++) |  |  |
| “+++” (≥50 = +++) | 18 (FLSSLKGGLL; listed as Homo sapiens) [compound 18] | “+” (<20% = +) |  |  |
| “+++” (≥50 = +++) | 21 (VLIDHRWVL; listed as Homo sapiens) [compound 21] | “+” (<20% = +) |  |  |
| “+++” (≥50 = +++) | 37 (GLFAGLGGAGA; listed as Homo sapiens) [compound 37] | “+” (<20% = +) |  |  |
| “++” (≥20% = ++) | 38 (SLAPTPVSA; listed as Homo sapiens) [compound 38] | “+” (<20% = +) |  |  |
| “++++” (≥75% = ++++) | 42 (SILDDSFKL; listed as Homo sapiens) [compound 42] | “+” (<20% = +) |  |  |
| “++” (≥20% = ++) | 47 (KLYERCEVV; listed as Homo sapiens) [compound 47] | “+” (<20% = +) |  |  |
| “+++” (≥50 = +++) | 59 (LLTDNVVKL; listed as Homo sapiens) [compound 59] | “+” (<20% = +) |  |  |
| “++” (≥20% = ++) | 64 (KTLGKLWRL; listed as Homo sapiens) [compound 64] | “++++” (>=70% = ++++) |  |  |
| “++” (≥20% = ++) | 123 (KTLERSYLL; listed as Homo sapiens) [compound 123] | “+” (<20% = +) |  |  |
| “+++” (≥50 = +++) | 124 (RVLPPSALQSV; listed as Homo sapiens) [compound 124] | “+” (<20% = +) |  |  |
| “+++” (≥50 = +++) | 127 (RLAELTVDEFLA; listed as Homo sapiens) [compound 127] | “+” (<20% = +) |  |  |
| “+++” (≥50 = +++) | 132 (ALLNAILHSA; listed as Homo sapiens) [compound 132] | “+” (<20% = +) |  |  |
| “++” (≥20% = ++) | 133 (RTFEKIEEV; listed as Homo sapiens) [compound 133] | “+” (<20% = +) |  |  |
| “++++” (≥75% = ++++) | 141 (AVIEHLERL; listed as Homo sapiens) [compound 141] | “+” (<20% = +) |  |  |
| “+++” (≥50 = +++) | 142 (SLVQRVETI; listed as Homo sapiens) [compound 142] | “+” (<20% = +) |  |  |
| “+++” (≥50 = +++) | 150 (RLADLEALKV; listed as Homo sapiens) [compound 150] | “++” (20%-49% = ++) |  |  |
|  | 219 (FLDEKGRCV; listed as Homo sapiens) [compound 219] |  | +++ (50%-69% = +++) | ++ (20%-49% = ++) |
|  | 220 (KMDPVAYRV; listed as Homo sapiens) [compound 220] |  | ++++ (>=70% = ++++) | +++ (50%-69% = +++) |
